The values that follow come from patent publication US7792665B2, “Method for designing a compound based on the three dimensional structure of phosphoinositide dependent protein kinase 1 (PDK1)” (Medical Research Council, priority 2002, dated 2010).

The structures appear in SMILES notation. Positions count from the first letter of the chain named. Entries after “also recorded” stand apart in the source; their conditions may differ. Where a SMILES comes first, the peptide text is derived from it. [ ]: non-standard residue; d: D form. pT = C[C@@H](OP(=O)(O)O)[C@H](N)C(=O)O

The target of one assay is T1, PDK1[K76A] (Homo sapiens, UniProt O15530, K76A).
T1 construct: made in house; host or cells: human embryonic kidney 293 cells (pEBG2T vector)
T1 sequence (O15530 1-556 K76A): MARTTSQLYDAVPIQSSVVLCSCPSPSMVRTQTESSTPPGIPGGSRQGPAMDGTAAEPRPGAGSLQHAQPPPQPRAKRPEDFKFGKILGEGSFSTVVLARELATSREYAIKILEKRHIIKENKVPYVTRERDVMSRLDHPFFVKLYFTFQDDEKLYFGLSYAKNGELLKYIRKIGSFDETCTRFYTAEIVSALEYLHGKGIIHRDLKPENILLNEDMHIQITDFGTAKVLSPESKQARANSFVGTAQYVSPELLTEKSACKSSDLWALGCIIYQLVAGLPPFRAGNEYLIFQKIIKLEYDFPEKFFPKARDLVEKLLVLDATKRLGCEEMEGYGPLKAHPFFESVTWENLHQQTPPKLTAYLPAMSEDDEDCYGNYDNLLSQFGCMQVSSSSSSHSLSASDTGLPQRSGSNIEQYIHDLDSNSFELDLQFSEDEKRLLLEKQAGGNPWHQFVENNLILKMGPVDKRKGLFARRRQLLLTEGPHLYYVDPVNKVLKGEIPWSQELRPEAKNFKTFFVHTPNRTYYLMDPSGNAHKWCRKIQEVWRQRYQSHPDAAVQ
Put plainly: Surface plasmon resonance (BiaCore) binding, PDK1[K76A]. The following applies: relative to wild type PDK1. The protocol: (§1) Binding and activation of wild type and mutant forms of PDK1 to a phosphopeptide derived from the hydrophobic motif of S6K1. The binding of the wild type (wt) PDK1 and indicated mutants to a phosphopeptide comprising the hydrophobic motif of S6K1 (S6K-pHM: […]*YVAPSV, where T* indicates phospho-threonine, SEQ ID NO:104) was analysed by surface plasmon resonance as described in the Materials and Methods.
(§2) A. The sensor chip SA was coated with 12RUs of the biotinylated S6K-pHM peptide and the binding was analysed following injection of 270 nM wild type PDK1, PDK1 [T148A] and PDK1 [K76A]. […] (data not shown).
(§3) B. As in A. except that binding was analysed over a range of PDK1 concentrations (2-2150 nM). The response level at the steady state binding is plotted versus the log of the PDK1 concentration. The estimated Kd was obtained by fitting the data to a sigmoid curve using Kaleidagraph software.
(§4) Binding was analysed in a BiaCore 3000 system (BiaCore AB, Stevenage, UK). Biotinylated S6K-pHM (Biotin-C12-[…](P)YVAPSV) (SEQ ID NO:104) or the non-phosphorylated form of this peptide S6K-HM was bound to an streptavidin-coated Sensor chip (SA) (12 response units, RU). […] Steady state binding was determined at each concentration. Dissociation of PDK1 from the phospho-peptide was monitored over a 1 min period. […]
On the technique in general: In SPR one partner is held on a chip, and binding of the other changes the refractive index at the surface.

The target in the next assay is T2, PDK1[R131A] (Homo sapiens, UniProt O15530, R131A).
T2 construct: GST (N); made in house; host or cells: human embryonic kidney 293 cells (pEBG2T vector)
T2 sequence (O15530 1-556 R131A): T1 sequence (O15530 1-556 K76A) with A76K, R131A
The assay can be described thus: Surface plasmon resonance (BiaCore) binding, PDK1[R131A]. As to the method: as §1, §2
Binding was analysed in a BiaCore 3000 system (BiaCore AB, Stevenage, UK). Biotinylated S6K-pHM (Biotin-C12-[…](P)YVAPSV) (SEQ ID NO:104) or the non-phosphorylated form of this peptide S6K-HM was bound to an streptavidin-coated Sensor chip (SA) (12 response units, RU). 30 μl of wild type or the indicated mutant GST-PDK1 were injected at a flow rate of 30 μl/min, in buffer HBS-P (10 mM HEPES pH 7.4, 0.15M NaCl, 0.005% (by vol) polysorbate-20) supplemented with 1 mM DTT. Specific interactions between 56K-pHM and PDK1 proteins were obtained between the concentration range of 2-2150 nM PDK1. Steady state binding was determined at each concentration. Dissociation of PDK1 from the phospho-peptide was monitored over a 1 min period. […]

The next assay deals with T3, PDK1[T148A] (Homo sapiens, UniProt O15530, T148A).
T3 sequence (O15530 1-556 T148A): T1 sequence (O15530 1-556 K76A) with A76K, T148A
Put plainly: Surface plasmon resonance (BiaCore) binding, PDK1[T148A]. More on the design: made in house; host or cells: human embryonic kidney 293 cells (pEBG2T vector). The protocol:
as §1, §2, §3, §4

`CC(C)C[C@H](NC(=O)[C@H](Cc1ccccc1)NC(=O)[C@@H](NC(=O)[C@H](CCC(N)=O)NC(=O)[C@H](CC(N)=O)NC(=O)[C@H](C)NC(=O)[C@H](CO)NC(=O)[C@H](CCC(=O)O)NC(=O)[C@@H](N)CO)C(C)C)C(=O)NCC(=O)N[C@@H](Cc1ccccc1)C(=O)N[C@H](C(=O)N[C@@H](Cc1ccc(O)cc1)C(=O)N[C@H](C(=O)N[C@@H](C)C(=O)N1CCC[C@H]1C(=O)N[C@@H](CO)C(=O)N[C@H](C(=O)O)C(C)C)C(C)C)[C@@H](C)OP(=O)(O)O` [S6K-pHM] (H-SESANQVFLGF[pT]YVAPSV-OH; N-terminus and C-terminus assumed): the “lower affinity of PDK1[K76A] than wild type PDK1” value at PDK1[K76A] worked out at 3 fold. At PDK1[R131A], the “binding of PDK1[R131A] to peptide” value was “No detectable binding; also recorded: did not detectably interact”. For the same molecule, the “dissociation of PDK1[T148A] from peptide compared with wild type PDK1 or PDK1[K76A]” value on PDK1[T148A] (BiaCore, 270 nM PDK1) is on record as “markedly slower”. The “higher affinity of PDK1[T148A] than wild type PDK1” value at PDK1[T148A] (relative to wild type PDK1) is “about 10 fold”.
